Tests used:
[1] = Binding affinity to purified p-glycoprotein by fluorescence quenching assay
[2] = Efflux ratio of permeability from basolateral to apical side to apical to basolateral side in human Caco2 cells at 10 uM by LC/MS/MS analysis; assay type: ADME, cell-based; conditions: Caco-2
[3] = tested on: A2780; test: Cytotoxicity against human A2780 cells after 48 hrs by MTT assay; assay type: functional, cell-based; conditions: A2780, 48 h
[4] = Apparent permeability from basolateral to apical side of human Caco2 cells at 10 uM by LC/MS/MS analysis; assay type: ADME, cell-based; conditions: Caco-2
[5] = Apparent permeability from apical to basolateral side of human Caco2 cells at 10 uM by LC/MS/MS analysis; assay type: ADME, cell-based; conditions: Caco-2
[6] = Cytotoxicity against multidrug-resistant human A2780AD cells overexpressing p-gp after 48 hrs by MTT assay; assay type: functional, cell-based; conditions: A2780 ADR
[7] = Binding affinity to microtubule after 30 mins by epothilone-B competition binding assay
[8] = tested on: A2780; test: Resistant index, ratio of IC50 for multidrug-resistant human A2780AD cells overexpressing p-gp to IC50 for human A2780 cells; assay type: functional

Kd [1] [nM] | efflux ratio at 10 µM [2] | Papp B→A at 10 µM [4] [×10⁻⁶ cm/s] | Papp A→B at 10 µM [5] [×10⁻⁶ cm/s] | Kd [7] [nM] | SMILES | IC50 [3] [nM] | IC50 [6] [nM] | Ratio IC50 [8]
498 | 2.79 | 0.265 | 0.095 | 1.1 | C/C=C(\C)C(=O)N[C@@H](c1ccccc1)[C@@H](O)C(=O)O[C@H]1C[C@@]2(O)[C@@H](OC(=O)c3cccc(N=[N+]=[N-])c3)[C@@H]3[C@]4(OC(C)=O)CO[C@@H]4C[C@H](OC(=O)CC)[C@@]3(C)C(=O)[C@H](O)C(=C1C)C2(C)C | 2.7 | 14 | 5.2
2150 | 1.28 | 9.4 | 7.35 | 0.95 | C/C=C(\C)C(=O)N[C@@H](c1ccccc1)[C@@H](O)C(=O)O[C@H]1C[C@@]2(O)[C@@H](OC(=O)c3cccc(N=[N+]=[N-])c3)[C@@H]3[C@]4(OC(C)=O)CO[C@@H]4C[C@H](OC(=O)C4CC4)[C@@]3(C)C(=O)[C@H](O)C(=C1C)C2(C)C | 22 | 293 | 13.3
2380 | 6.44 | 27 | 4.19 | 1.48 | C/C=C(\C)C(=O)N[C@@H](c1ccccc1)[C@@H](O)C(=O)O[C@H]1C[C@@]2(O)[C@@H](OC(=O)c3cccc(N=[N+]=[N-])c3)[C@@H]3[C@]4(OC(C)=O)CO[C@@H]4C[C@H](OC(=O)CN(C)C)[C@@]3(C)C(=O)[C@H](O)C(=C1C)C2(C)C | 7.2 | 3200 | 444.4
6340 | 6.93 | 8.53 | 1.23 | 0.81 | C/C=C(\C)C(=O)N[C@@H](c1ccccc1)[C@@H](O)C(=O)O[C@H]1C[C@@]2(O)[C@@H](OC(=O)c3cccc(N=[N+]=[N-])c3)[C@@H]3[C@]4(OC(C)=O)CO[C@@H]4C[C@H](OC(=O)CNC(=O)OC(C)(C)C)[C@@]3(C)C(=O)[C@H](O)C(=C1C)C2(C)C | 15.5 | 875 | 56.4
2750 | 5.63 | 1.07 | 0.19 | 0.62 | C/C=C(\C)C(=O)N[C@@H](c1ccccc1)[C@@H](O)C(=O)O[C@H]1C[C@@]2(O)[C@@H](OC(=O)c3cccc(N=[N+]=[N-])c3)[C@@H]3[C@]4(OC(C)=O)CO[C@@H]4C[C@H](OC(=O)CCl)[C@@]3(C)C(=O)[C@H](O)C(=C1C)C2(C)C | 17.2 | 710 | 41.2
4310 | 2.2 | 6.61 | 3 | 0.66 | C/C=C(\C)C(=O)N[C@@H](c1ccccc1)[C@@H](O)C(=O)O[C@H]1C[C@@]2(O)[C@@H](OC(=O)c3cccc(N=[N+]=[N-])c3)[C@@H]3[C@]4(OC(C)=O)CO[C@@H]4C[C@H](OC(=O)CC(F)(F)F)[C@@]3(C)C(=O)[C@H](O)C(=C1C)C2(C)C | 33 | 1300 | 39.4
1420 | 1.68 | 12.6 | 7.46 | 0.9 | C/C=C(\C)C(=O)N[C@@H](c1ccccc1)[C@@H](O)C(=O)O[C@H]1C[C@@]2(O)[C@@H](OC(=O)c3cccc(N=[N+]=[N-])c3)[C@@H]3[C@]4(OC(C)=O)CO[C@@H]4C[C@H](OC(=O)OCC)[C@@]3(C)C(=O)[C@H](O)C(=C1C)C2(C)C | 11.2 | 170 | 15.2
3150 | 7.48 | 19.1 | 2.55 | 2.15 | C/C=C(\C)C(=O)N[C@@H](c1ccccc1)[C@@H](O)C(=O)O[C@H]1C[C@@]2(O)[C@@H](OC(=O)c3cccc(N=[N+]=[N-])c3)[C@@H]3[C@]4(OC(C)=O)CO[C@@H]4C[C@H](OC(=O)NC)[C@@]3(C)C(=O)[C@H](O)C(=C1C)C2(C)C | 7.4 | 1400 | 189.2
5290 | – | – | – | 2.45 | C/C=C(\C)C(=O)N[C@@H](c1ccccc1)[C@@H](O)C(=O)O[C@H]1C[C@@]2(O)[C@@H](OC(=O)c3cccc(N=[N+]=[N-])c3)[C@@H]3[C@]4(OC(C)=O)CO[C@@H]4C[C@H](OC(=O)N(C)C)[C@@]3(C)C(=O)[C@H](O)C(=C1C)C2(C)C | 26 | 950 | 36.5
35 | 7.62 | 5.03 | 0.66 | 56 | CC(=O)O[C@H]1C(=O)[C@@]2(C)[C@H]([C@H](OC(=O)c3ccccc3)[C@]3(O)C[C@H](OC(=O)[C@H](O)[C@@H](NC(=O)c4ccccc4)c4ccccc4)C(C)=C1C3(C)C)[C@]1(OC(C)=O)CO[C@@H]1C[C@@H]2O [PACLITAXEL] | 0.62 | 1900 | 3064
– | 1.21 | 23.4 | 19.2 | – | CC(C)NCC(O)COc1cccc2ccccc12 (stereo not given) [PROPRANOLOL] | – | – | –

From ChEMBL document CHEMBL1806422, “Effects of C7 substitutions in a high affinity microtubule-binding taxane on antitumor activity and drug transport” (Bioorg Med Chem Lett, 2011)
